Results published in patent US20120071475A1, “UREA DERIVATIVES HAVING PI3K-INHIBITING ACTIVITY” (SHIONOGI & CO., LTD., priority 2009, published 2012).

Assays:
PI3Kγ = PI3Kγ (Homo sapiens, UniProt P48736); assay: PI3Kγ inhibitory activity (PI3-kinase HTRF assay, inhibition ratio); assay type: biochemical; conditions: compound at 10 μmol/L; for inhibition at 10 µM: 0.5 h, read-out: PI3Kg Inhibition Ratio % (10 μM)
Procedure: For each compound synthesized in the above Examples, PI3Kγ inhibitory activity was measured.
The PI3Kγ inhibitory activity of a compound was evaluated using PI3-kinase HTRF™ assay (Millipore) according to the following procedure:
To each well of a testing plate, 5 μL of a compound solution containing 10% DMSO (40 μmol/L as the concentration of the compound), 5 μL of a substrate solution (40 μmol/L phosphatidylinositol (4,5)-bisphosphate, 20 mmol/L MgCl2, 10 mmol/L DTT), and 5 μL of an enzyme solution (80 μg/mL PI-3 kinase y, 10 mmol/L MgCl2, 5 mmol/L DTT) were added, and then allowed to stand for 10 minutes.
Then, 5 μL of a reaction solution (40 μmol/L ATP, 10 mmol/L MgCl2, 5 mmol/L DTT) was added thereto. After reacting for 30 minutes at room temperature, 5 μL of a solution containing EDTA and biotinylated phosphatidylinositol (3,4,5)-triphosphate was added to quench the reaction.
5 μL of a detection reagent containing a europium-labeled anti-GST antibody, the GST-tagged PH domain, and allophycocyanin-labeled streptavidin was added thereto. After 18 hours, HTRF (excitation wavelength: 330 nm, measured wavelengths: 620 nm and 665 nm) was measured.
HTRF ratio was defined as the value obtained by dividing the amount of fluorescence obtained at the measured wavelength 665 nm by the amount of fluorescence obtained at 620 nm. The HTRF ratio in the absence of a compound was defined as 100% activity and the HTRF ratio in the absence of PI-3 kinase y was defined as 0% activity to calculate an inhibition ratio, which was defined as the PI3Kγ inhibitory activity of a compound at 10 μmol/L.

[1] = Metabolic stability test (pooled human liver microsome); assay type: in vitro ADME; conditions: percentage of test compound remained after 30 minutes, pooled human liver microsome 0.5 mg protein/mL, 1 mmol/L NADPH, 37° C.; for hLMS_ox(at 0.5 μM) %: compound 0.5 μM
Procedure: After a subject compound was reacted for a certain time using a pooled human liver microsome commercially available, a reacted sample and an unreacted sample are compared to calculate a survival ratio, and then the degree of metabolism in the liver was evaluated.
0.2 mL of a buffer solution (50 mmol/L of Tris-HCl in pH 7.4, 150 mmol/L of potassium chloride, and 10 mmol/L of magnesium chloride) containing a human liver microsome of 0.5 mg protein/mL was reacted in the presence of 1 mmol/L NADPH at 37° C. for 0 or 30 minutes (oxidative reaction). After reacting, 50 μL of the reaction solution was added to 100 μL of a solution of methanol/acetonitrile (1/1 (v/v)), mixed, and then centrifuged at 3000 rpm for 15 minutes. The test compound in the supernatant was quantitated with LC/MS/MS. The amount of the compound at a reaction time of 0 minute was defined as 100% and, based on that, the percentage of the test compound remained after reacting for 30 minutes was calculated.

PI3Kγ, sequence (P48736 whole entry, species assumed): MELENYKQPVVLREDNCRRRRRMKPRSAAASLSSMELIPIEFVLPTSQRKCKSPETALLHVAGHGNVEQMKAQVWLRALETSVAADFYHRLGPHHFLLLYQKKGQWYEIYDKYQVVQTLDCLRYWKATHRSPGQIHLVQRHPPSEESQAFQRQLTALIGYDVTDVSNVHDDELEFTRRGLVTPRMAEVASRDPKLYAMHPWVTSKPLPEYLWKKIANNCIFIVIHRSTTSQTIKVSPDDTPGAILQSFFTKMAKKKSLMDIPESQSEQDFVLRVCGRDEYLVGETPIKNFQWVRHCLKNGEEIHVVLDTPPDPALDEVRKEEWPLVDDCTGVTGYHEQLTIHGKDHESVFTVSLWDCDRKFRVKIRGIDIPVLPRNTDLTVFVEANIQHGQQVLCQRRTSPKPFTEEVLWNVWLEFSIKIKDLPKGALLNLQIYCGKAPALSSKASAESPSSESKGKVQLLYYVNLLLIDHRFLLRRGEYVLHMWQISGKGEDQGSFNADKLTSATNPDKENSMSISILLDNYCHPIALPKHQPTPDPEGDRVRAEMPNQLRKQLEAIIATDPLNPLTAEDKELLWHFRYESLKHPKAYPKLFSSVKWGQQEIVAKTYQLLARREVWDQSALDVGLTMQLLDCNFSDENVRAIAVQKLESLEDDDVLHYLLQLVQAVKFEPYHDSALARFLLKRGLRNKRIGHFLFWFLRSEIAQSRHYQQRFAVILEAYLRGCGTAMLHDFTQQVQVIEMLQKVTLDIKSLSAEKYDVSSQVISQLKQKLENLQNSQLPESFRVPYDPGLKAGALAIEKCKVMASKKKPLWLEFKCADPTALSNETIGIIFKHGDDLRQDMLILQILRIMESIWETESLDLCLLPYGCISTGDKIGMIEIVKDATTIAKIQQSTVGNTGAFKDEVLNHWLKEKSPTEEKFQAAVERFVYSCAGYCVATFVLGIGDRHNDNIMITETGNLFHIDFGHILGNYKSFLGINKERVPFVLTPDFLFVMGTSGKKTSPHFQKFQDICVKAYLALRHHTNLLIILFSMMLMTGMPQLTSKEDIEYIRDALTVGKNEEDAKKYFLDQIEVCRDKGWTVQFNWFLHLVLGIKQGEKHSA

| SMILES | inhibition at 10 µM (PI3Kγ) [%] | further results |
| --- | --- | --- |
| COC(=O)c1ccsc1NC(=O)Nc1nc2c(s1)CN(c1cc(OC)nc(OC)n1)CC2 [Compound I-1] | 79 | – |
| COC(=O)c1sccc1NC(=O)Nc1nc2c(s1)CN(c1cc(OC)nc(OC)n1)CC2 [Compound I-2] | 69 | – |
| COc1cc(N2CCc3nc(NC(=O)Nc4ccccc4C(=O)OC(C)(C)C)sc3C2)nc(OC)n1 [Compound I-3] | ≥ 95 | hLMS_ox(at 2 μM) % ([1]; compound 2 μM): 82% |
| COC(=O)c1ccccc1NC(=O)Nc1nc2c(s1)CN(c1cc(OC)nc(OC)n1)CC2 [Compound I-6] | ≥ 95 | – |
| COc1cc(N2CCc3nc(NC(=O)Nc4ccccc4C(=O)N4CCCCC4)sc3C2)nc(OC)n1 [Compound I-8] | 93 | – |
| COc1cc(N2CCc3nc(NC(=O)Nc4ccccc4C(=O)N(C)C(C)(C)C)sc3C2)nc(OC)n1 [Compound I-11] | 94 | – |
| COc1cc(N2CCc3nc(NC(=O)Nc4ccccc4C(=O)NC(C)(C)CO)sc3C2)nc(OC)n1 [Compound I-15] | 94 | – |
| COC(=O)C(C)(C)NC(=O)c1ccccc1NC(=O)Nc1nc2c(s1)CN(c1cc(OC)nc(OC)n1)CC2 [Compound I-17] | ≥ 95 | – |
| COCC(C)NC(=O)c1ccccc1NC(=O)Nc1nc2c(s1)CN(c1cc(OC)nc(OC)n1)CC2 (stereo not drawn) [Compound I-18] | 94 | – |
| COC(=O)c1ccncc1NC(=O)Nc1nc2c(s1)CN(c1cc(OC)nc(OC)n1)CC2 [Compound I-21] | 74 | – |
| COc1cc(N2CCc3nc(NC(=O)Nc4ccccc4C(=O)NC(C)(C)C#N)sc3C2)nc(OC)n1 [Compound I-25] | ≥ 95 | – |
| COc1cc(N2CCc3nc(NC(=O)Nc4ccsc4C(=O)NC(C)(C)C)sc3C2)nc(OC)n1 [Compound I-26] | ≥ 95 | – |
| COc1cc(N2CCc3nc(NC(=O)Nc4ccc(F)cc4C(=O)NC(C)C)sc3C2)nc(OC)n1 [Compound I-32] | ≥ 95 | – |
| COc1cc(N2CCc3nc(NC(=O)Nc4ccccc4NC(=O)C(C)(C)C)sc3C2)nc(OC)n1 [Compound I-44] | ≥ 95 | – |
| COc1cc(N2CCc3nc(NC(=O)Nc4ccccc4OCC(C)C)sc3C2)nc(OC)n1 [Compound I-47] | ≥ 95 | – |
| COc1cc(N2CCc3nc(NC(=O)Nc4ccccc4C(=O)CCC(C)C)sc3C2)nc(OC)n1 [Compound I-66] | ≥ 95 | – |
| COc1cc(N2CCc3nc(NC(=O)Nc4ccccc4CC(C)C)sc3C2)nc(OC)n1 [Compound I-68] | ≥ 95 | – |
| COc1cc(N2CCc3nc(NC(=O)Nc4ccccc4C(=O)NCCO)sc3C2)nc(OC)n1 [Compound I-85] | ≥ 95 | hLMS_ox(at 0.5 μM) % [1]: 90.2% |
| COc1cc(N2CCc3nc(NC(=O)Nc4ccccc4C(=O)NC(C)CO)sc3C2)nc(OC)n1 (stereo not drawn) [Compound I-87] | ≥ 95 | hLMS_ox(at 0.5 μM) % [1]: 91.9% |
| COc1nccc(N2CCc3nc(NC(=O)Nc4ccccc4OCCC(C)C)sc3C2)n1 [Compound I-96] | ≥ 95 | – |
| O=C(Nc1nc2c(s1)CN(c1ccnc(Cl)n1)CC2)Nc1ccccc1C(=O)NCCO [Compound I-99] | ≥ 95 | hLMS_ox(at 0.5 μM) % [1]: 90.6% |
| COc1cc(N2CCc3nc(NC(=O)Nc4ccccc4C(O)CC(C)C)sc3C2)nc(OC)n1 (stereo not drawn) [Compound I-116] | ≥ 95 | – |
| CC(CO)NC(=O)c1ccccc1NC(=O)Nc1nc2c(s1)CN(c1ccc(F)c(F)c1)CC2 (stereo not drawn) [Compound I-118] | ≥ 95 | hLMS_ox(at 0.5 μM) % [1]: 89.8% |
| CC(CO)NC(=O)c1ccccc1NC(=O)Nc1nc2c(s1)CN(c1cc(F)cc(F)c1)CC2 (stereo not drawn) [Compound I-119] | ≥ 95 | hLMS_ox(at 0.5 μM) % [1]: 90.8% |
| CC(CO)NC(=O)c1ccccc1NC(=O)Nc1nc2c(s1)CN(c1ccnc(F)c1)CC2 (stereo not drawn) [Compound I-122] | ≥ 95 | hLMS_ox(at 0.5 μM) % [1]: 90.6% |
| COc1cc(N2CCc3nc(NC(=O)N[C@@H]4C[C@H]4C(=O)NC(C)C)sc3C2)nc(OC)n1 [Compound I-130] | – | hLMS_ox(at 0.5 μM) % [1]: 104% |
| COc1cc(N2CCc3nc(NC(=O)Nc4ccccc4C(=O)NN(C)C)sc3C2)nc(OC)n1 [Compound I-194] | – | PI3Kg Inhibition Ratio % (10 μM) (PI3Kγ): 92% |

Further lines, with some results ahead:

| inhibition at 10 µM (PI3Kγ) [%] | SMILES | further results |
| --- | --- | --- |
| 85 | CC(C)NC(=O)c1nn(C)cc1NC(=O)Nc1nc2c(s1)CN(c1cncc(C(F)(F)F)c1)CC2 [Compound I-132] | – |
| 93 | Cc1cc(N2CCc3nc(NC(=O)Nc4cn(C)nc4C(=O)NC(C)C)sc3C2)nc(Cl)n1 [Compound I-164] | – |
| 85 | COc1cc(N2CCc3nc(NC(=O)Nc4ccccc4S(=O)(=O)NC(C)C)sc3C2)nc(OC)n1 [Compound I-171] | – |
| 88 | COc1cc(N2CCc3nc(NC(=O)Nc4ccccc4O)sc3C2)nc(OC)n1 [Compound I-177] | – |
| 79 | Cc1cc(N2CCc3nc(NC(=O)Nc4ccccc4C(=O)NC(C)C)sc3C2)nc(C#N)n1 [Compound I-181] | hLMS_ox(at 0.5 μM) % [1]: 85.9% |
| 75 | CC(C)NC(=O)c1nn(C)cc1NC(=O)Nc1nc2c(s1)CN(c1cc[nH]c(=O)c1)CC2 [Compound I-184] | hLMS_ox(at 0.5 μM) % [1]: 98.1% |
| 83 | CO/N=C(\C)c1ccccc1NC(=O)Nc1nc2c(s1)CN(c1cc(OC)nc(OC)n1)CC2 [Compound I-196] | – |
| 78 | COc1cc(N2CCc3nc(NC(=O)Nc4cccc5c4C(=O)N(C(C)C)C5)sc3C2)nc(OC)n1 [Compound I-201] | – |
| 87 | C[C@@H](CO)NC(=O)c1ccccc1NC(=O)Nc1nc2c(s1)CN(c1ccc(C(F)(F)F)cc1)CC2 [Compound I-206] | – |
| 93 | C[C@H](CO)NC(=O)c1ccccc1NC(=O)Nc1nc2c(s1)CN(c1ccc(C(F)(F)F)cc1)CC2 [Compound I-207] | hLMS_ox(at 0.5 μM) % [1]: 93.5% |
| ≥ 95 | CC(=O)c1cccc(-c2ccc3nc(NC(=O)Nc4ccccc4OCCC(C)C)sc3c2)c1 [Compound I-214] | – |
| ≥ 95 | COc1ccc(-c2ccc3nc(NC(=O)Nc4ccccc4OCCC(C)C)sc3c2)cn1 [Compound I-215] | – |
| 88 | CC(=O)c1cccc(-c2ccc3nc(NC(=O)Nc4ccccc4OCCC(C)C)nn3c2)c1 [Compound I-217] | – |
| 90 | COc1ccc(-c2ccc3nc(NC(=O)Nc4ccccc4OCCC(C)C)nn3c2)cn1 [Compound I-218] | – |
| ≥ 95 | COc1ccc(-c2ccc3nc(NC(=O)Nc4ccccc4OCCC(C)C)sc3n2)cn1 [Compound I-220] | – |
| ≥ 95 | CC(=O)c1cccc(-c2cc(NC(=O)Nc3ccccc3OCCC(C)C)nn2C)c1 [Compound I-222] | – |
| 88 | COc1ccc(-c2cc(NC(=O)Nc3ccccc3C(=O)NC(C)C)nn2C)cn1 [Compound I-228] | – |
